Reference: patent US20250215039A1, “NUCLEOSIDES FOR TREATING CANCER” (PRIMEFOUR THERAPEUTICS, INC., priority 2022, published 2025)
pIC50: −log10 of the molar value. Read-outs that look alike come from different tables or passages of the source.

Tested on: cancer cell lines
Test: Cancer cell proliferation activity (CellTiterGlo, 72 h)
Type: cell-based
Conditions: 72 h, 72 h, read-out: IC50
In short: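 Readout is CellTiterGlo luminescence after 72 h compound exposure (0.1% DMSO final), started one day post-seeding, at 37 °C.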

SMILES: C=C[C@]1(CO)O[C@@H](Nc2[nH]c(=O)ncc2Br)C[C@@H]1O [Cpd. No. 3, 5-bromo-6-(((2R,4S,5R)-4-hydroxy-5-(hydroxymethyl)-5-vinyltetrahydrofuran-2-yl)amino)pyrimidin-2(1H)-one]
- pIC50 (5637 cell line (bladder)): 5.30
- pIC50 (CLS439 cell line (bladder)): < 4.30
- pIC50 (HS729 cell line (muscle)): 5.31
- pIC50 (JAR cell line (placenta)): < 4.30
- pIC50 (U20S cell line, bone): < 4.30
- pIC50 (Homo sapiens, 22Rv1, 72 h, 22RV1 cell line (prostate)): < 4.30
- pIC50 (Homo sapiens, 786-0, 72 h, 786O cell line (kidney)): < 4.30
- pIC50 (Homo sapiens, A204, 72 h, A204 cell line (muscle)): 5.96
- pIC50 (Homo sapiens, A549, 72 h, A549 cell line, lung): 5.48
- pIC50 (Homo sapiens, A673, 72 h, A673 cell line (bone)): < 4.30
- pIC50 (Homo sapiens, A2780, 72 h, A2780 cell line (ovary)): < 4.30
- pIC50 (Homo sapiens, A-375, 72 h, A375 cell line (skin)): 5.34
- pIC50 (Homo sapiens, A-431, 72 h, A431 cell line (skin)): < 4.30
- pIC50 (Homo sapiens, ACHN, ACHN cell line (kidney)): < 4.30
- pIC50 (Homo sapiens, ASPC1, 72 h, ASPC1 cell line (pancreas)): < 4.30
- pIC50 (Homo sapiens, BT-20, 72 h, BT20 cell line (breast)): < 4.30
- pIC50 (Homo sapiens, BXPC-3, 72 h, BXPC3 cell line (pancreas)): < 4.30
- pIC50 (Homo sapiens, C-33-A, C33A cell line, endometrial): 5.57
- pIC50 (Homo sapiens, CAKI-1, 72 h, CAKI1 cell line (kidney)): 5.49
- pIC50 (Homo sapiens, COLO 205, 72 h, COLO205 cell line (colon)): 5.64
- pIC50 (Homo sapiens, COLO-678, 72 h, COLO678 cell line (colon)): < 4.30
- pIC50 (Homo sapiens, Ca-Ski, CASKI cell line, endometrial): < 4.30
- pIC50 (Homo sapiens, Caco-2, 72 h, CACO2 cell line (colon)): < 4.30
- pIC50 (Homo sapiens, Calu-6, 72 h, CALU6 cell line (lung)): 5.22
- pIC50 (Homo sapiens, DLD-1, 72 h, DLD1 cell line (colon)): < 4.30
- pIC50 (Homo sapiens, DU-145, 72 h, DU145 cell line (prostate)): < 4.30
- pIC50 (Homo sapiens, EFO-21, 72 h, EFO21 cell line (ovary)): < 4.30
- pIC50 (Homo sapiens, EJ-28, 72 h, EJ28 cell line (bladder)): < 4.30
- pIC50 (Homo sapiens, Granta-519, 72 h, GRANTA-519 cell line (hematological)): 5.97
- pIC50 (Homo sapiens, HCT-15, 72 h, HCT15 cell line (colon)): < 4.30
- pIC50 (Homo sapiens, HCT-116, 72 h, HCT116 cell line (colon)): 5.44
- pIC50 (Homo sapiens, HEK293, 72 h, HEK293 cell line (kidney)): 5.46
- pIC50 (Homo sapiens, HL-60, 72 h, HL-60 cell line (hematological)): 5.47
- pIC50 (Homo sapiens, HT-29, 72 h, HT29 cell line (colon)): < 4.30
- pIC50 (Homo sapiens, HT-1080, 72 h, HT1080 cell line (connective tissue)): 5.46
- pIC50 (Homo sapiens, HeLa, HELA cell line, endometrial): 5.27
- pIC50 (Homo sapiens, HepG2, 72 h, HEPG2 cell line (liver)): < 4.30
- pIC50 (Homo sapiens, Hs-578T, HS578T cell line, breast): < 4.30
- pIC50 (Homo sapiens, IGROV-1, 72 h, IGROV1 cell line (ovary)): < 4.30
- pIC50 (Homo sapiens, IMR-90, 72 h, IMR90 cell line, lung): 5.27
- pIC50 (Homo sapiens, J82, 72 h, J82 cell line (bladder)): < 4.30
- pIC50 (Homo sapiens, JEG-3, 72 h, JEG3 cell line (placenta)): < 4.30
- pIC50 (Homo sapiens, JIMT-1, 72 h, JIMT1 cell line (breast)): 4.93
- pIC50 (Homo sapiens, K562, 72 h, K-562 cell line (hematological)): 5.30
- pIC50 (Homo sapiens, Kasumi 1, 72 h, KASUMI-1 cell line (hematological)): 6.30
- pIC50 (Homo sapiens, L-363, 72 h, L-363 cell line (hematological)): < 4.30
- pIC50 (Homo sapiens, LoVo, LOVO cell line (colon)): < 4.30
- pIC50 (Homo sapiens, MCF7, 72 h, MCF7 cell line (breast)): 5.59
- pIC50 (Homo sapiens, MDA-MB-231, 72 h, MDAMB231 cell line (breast)): 5.53
- pIC50 (Homo sapiens, MDA-MB-435, 72 h, MDAMB435 cell line (skin)): < 4.30
- pIC50 (Homo sapiens, MDA-MB-436, 72 h, MDAMB436 cell line (breast)): 5.44
- pIC50 (Homo sapiens, MDA-MB-468, 72 h, MDAMB468 cell line (breast)): < 4.30
- pIC50 (Homo sapiens, MG-63, 72 h, MG63 cell line (bone)): 5.41
- pIC50 (Homo sapiens, MHH-ES-1, 72 h, MHHES1 cell line (bone)): 5.31
- pIC50 (Homo sapiens, MIA PaCa-2, 72 h, MIAPACA2 cell line (pancreas)): < 4.30
- pIC50 (Homo sapiens, MINO, MINO cell line (hematological)): 5.82
- pIC50 (Homo sapiens, MV4-11, 72 h, MV4-11 cell line (hematological)): 5.67
- pIC50 (Homo sapiens, NCI-H23, 72 h, NCI-H23 cell line (lung)): 5.74
- pIC50 (Homo sapiens, NCI-H82, 72 h, NCIH82 cell line (lung)): < 4.30
- pIC50 (Homo sapiens, NCI-H292, 72 h, NCIH292 cell line (lung)): 5.27
- pIC50 (Homo sapiens, NCI-H460, 72 h, NCIH460 cell line (lung)): < 4.30
- pIC50 (Homo sapiens, OVCAR-3, 72 h, OVCAR3 cell line (ovary)): 5.51
- pIC50 (Homo sapiens, OVCAR-4, 72 h, OVCAR4 cell line (ovary)): 5.50
- pIC50 (Homo sapiens, PANC-1, 72 h, PANC1 cell line (pancreas)): < 4.30
- pIC50 (Homo sapiens, PC-3, 72 h, PC3 cell line (prostate)): 5.32
- pIC50 (Homo sapiens, PLC-PRF-5, 72 h, PLCPRF5 cell line (liver)): < 4.30
- pIC50 (Homo sapiens, Panc1005, 72 h, PANC1005 cell line (pancreas)): < 4.30
- pIC50 (Homo sapiens, RD, RD cell line (muscle)): 5.57
- pIC50 (Homo sapiens, Ramos, RAMOS cell line (hematological)): 5.85
- pIC50 (Homo sapiens, SAOS-2, 72 h, SAOS2 cell line (bone)): 5.77
- pIC50 (Homo sapiens, SF-268, 72 h, SF268 cell line (brain)): < 4.30
- pIC50 (Homo sapiens, SF-295, 72 h, SF295 cell line (brain)): < 4.30
- pIC50 (Homo sapiens, SK-BR-3, 72 h, SKBR3 cell line (breast)): 5.46
- pIC50 (Homo sapiens, SK-HEP1, 72 h, SKHEP1 cell line (liver)): 5.52
- pIC50 (Homo sapiens, SK-LMS-1, 72 h, SKLMS1 cell line (uterus)): < 4.30
- pIC50 (Homo sapiens, SK-MEL-5, 72 h, SKMEL5 cell line, skin): < 4.30
- pIC50 (Homo sapiens, SK-MEL-28, 72 h, SKMEL28 cell line (skin)): 5.38
- pIC50 (Homo sapiens, SK-N-AS, SKNAS cell line (brain)): 6.02
- pIC50 (Homo sapiens, SK-N-SH, SKNSH cell line (brain)): 6.04
- pIC50 (Homo sapiens, SK-OV-3, 72 h, SKOV3 cell line (ovary)): 5.61
- pIC50 (Homo sapiens, SNB-75, 72 h, SNB75 cell line (brain)): < 4.30
- pIC50 (Homo sapiens, SU-DHL10, 72 h, SU-DHL-10 cell line (hematological)): 5.25
- pIC50 (Homo sapiens, SU-DHL-6, 72 h, SU-DHL-6 cell line (hematological)): < 4.30
- pIC50 (Homo sapiens, SW-620, 72 h, SW620 cell line (colon)): < 4.30
- pIC50 (Homo sapiens, T-24, 72 h, T24 cell line (bladder)): < 4.30
- pIC50 (Homo sapiens, TE-671, 72 h, TE671 cell line (muscle)): 5.51
- pIC50 (Homo sapiens, THP-1, 72 h, THP-1 cell line (hematological)): 5.52
- pIC50 (Homo sapiens, U-87 MG, U87MG cell line (brain)): < 4.30
- pIC50 (Homo sapiens, UMUC3, 72 h, UMUC3 cell line (bladder)): < 4.30
- pIC50 (Homo sapiens, UO-31, 72 h, UO31 cell line (kidney)): < 4.30
- pIC50 (Homo sapiens, WSU-NHL, WSU-NHL cell line (hematological)): 5.63
- pIC50 (MT-3, 72 h, MT3 cell line (breast)): 5.43
- pIC50 (NCI-H358M, NCIH358M cell line (lung)): 5.57
- pIC50 (PBMC, PBMC (hematological)): < 4.30
- pIC50 (RD-ES, RDES cell line (bone)): < 4.30
